Experimental data from the OPERA property sets (Mansouri et al. 2018).

| Structure (SMILES) | log10 OH rate constant (cm³/molecule/s) (25.0 °C) | also measured |
| --- | --- | --- |
| C=C[N+](=O)[O-] | -11.9 | – |
| CCON=O | -12.2 | – |
| C[C@@H]1CC[C@@H]2C[C@H]1C2(C)C | – | log10 OH rate constant (cm³/molecule/s) (23.0 °C): -10.9 |
| CC#N | -13.6 | – |
| CC(C)(C)OO | -11.5 | – |
| FC(Cl)C(F)(F)C(F)(F)Cl (centres undefined) | – | log10 OH rate constant (cm³/molecule/s) (22.0 °C): -14.1 |
| FC(F)(Br)C(F)(F)Br | – | log10 OH rate constant (cm³/molecule/s) (23.0 °C): < -15.9 |
| CCCCCCCCCCCC | -10.8 | – |
| COS(=O)(=O)OC | < -12.3 | – |
| CCOCC | -10.9 | – |
| O=[N+]([O-])C1=CCCCC1 | -10.4 | – |
| FC(F)(Br)Br | – | log10 OH rate constant (cm³/molecule/s) (24.0 °C): < -15.2 |
| CCCCO[N+](=O)[O-] | -11.8 | – |
| C | -14.2 | – |
| FC(F)(F)Br | < -16 | – |
| FC(Cl)(Cl)Cl | < -15.3 | – |
| CCCCCCCCO | -10.8 | – |
| C=CC[N+](=O)[O-] | -10.9 | – |
| CSC | -11.3 | – |
| CCCl | -12.4 | – |
| CCCCSCCCC | – | log10 OH rate constant (cm³/molecule/s) (22.0 °C): -10.4 |
| FC(Br)(Br)Br | < -15 | – |
| C1=Cc2ccccc2C1 | – | log10 OH rate constant (cm³/molecule/s) (22.0 °C): -10.3 |
| CC[N+](=O)[O-] | -12.8 | – |
| CON=O | -12.7 | – |
| CCCCON=O | -11.6 | – |
| FC(F)(F)C(F)(F)C(Cl)Cl | -13.6 | – |
| CC1(C)C2CC3C(C2)C31C | – | log10 OH rate constant (cm³/molecule/s) (23.0 °C): -11.5 |
| C1C2C3C2C2C1C32 (centres undefined) | -11.7 | – |
